Patent US20240158446A1, “CYCLIC COMPOUND HAVING SELECTIVE INHIBITORY ACTION ON KRAS OVER HRAS AND NRAS” (CHUGAI SEIYAKU KABUSHIKI KAISHA, priority 2021, published 2024)
Read-outs that look alike come from different tables or passages of the source.

Key:
[1] = system: human lung cancer strain NCI-H441;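 also: cell proliferation inhibition after four days measured by CellTiter-Glo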
[2] = target: GDP-bound HRAS wild-type protein (Homo sapiens, UniProt P01112); experiment: Binding to HRAS by surface plasmon resonance (SPR), Single Cycle Kinetics; details: for HRAS/KRAS (ratio of KD value for HRAS to KD value for KRAS): GDP-bound HRAS wild-type protein vs GDP-bound KRAS wild-type protein
Sequence of GDP-bound HRAS wild-type protein (P01112 whole entry): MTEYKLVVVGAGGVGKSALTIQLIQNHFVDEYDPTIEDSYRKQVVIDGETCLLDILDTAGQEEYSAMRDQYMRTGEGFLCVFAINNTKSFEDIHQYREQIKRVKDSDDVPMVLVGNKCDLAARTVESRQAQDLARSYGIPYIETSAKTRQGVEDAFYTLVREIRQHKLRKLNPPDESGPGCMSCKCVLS

[3] = target: GDP-bound NRAS wild-type protein (Homo sapiens, UniProt P01111); experiment: Binding to NRAS by surface plasmon resonance (SPR), Single Cycle Kinetics; details: for NRAS/KRAS (ratio of KD value for NRAS to KD value for KRAS): GDP-bound NRAS wild-type protein vs GDP-bound KRAS wild-type protein
Sequence of GDP-bound NRAS wild-type protein (P01111 whole entry): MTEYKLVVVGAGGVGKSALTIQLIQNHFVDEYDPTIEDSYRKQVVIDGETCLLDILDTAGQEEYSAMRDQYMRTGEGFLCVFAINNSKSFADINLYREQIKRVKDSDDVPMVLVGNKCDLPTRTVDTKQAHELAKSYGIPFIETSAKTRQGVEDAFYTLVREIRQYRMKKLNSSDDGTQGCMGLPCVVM

[4] = target: GDP-bound KRAS wild-type protein (Homo sapiens, UniProt P01116); experiment: Binding to KRAS by surface plasmon resonance (SPR), Single Cycle Kinetics; details: GDP-bound KRAS wild-type protein, read-out: KRAS KD
Sequence of GDP-bound KRAS wild-type protein (P01116 whole entry): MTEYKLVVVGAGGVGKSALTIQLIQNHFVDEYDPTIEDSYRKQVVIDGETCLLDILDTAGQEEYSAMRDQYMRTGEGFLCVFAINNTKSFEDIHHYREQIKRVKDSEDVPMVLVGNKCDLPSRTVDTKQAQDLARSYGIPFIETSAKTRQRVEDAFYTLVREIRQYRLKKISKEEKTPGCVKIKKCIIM

[5] = SPR, Single Cycle Kinetics, 1:1 binding model

Kd ([4]; SPR, Single Cycle Kinetics) [nM] | IC50 [1] [nM] | Kd [4, 5] [nM] | SMILES | HRAS/KRAS (ratio of KD value for HRAS to KD value for KRAS) ([2]; SPR) | NRAS/KRAS (ratio of KD value for NRAS to KD value for KRAS) ([3]; SPR) | HRAS/KRAS (ratio of KD value for HRAS to KD value for KRAS) ([2]; SPR, KD ratio class) | NRAS/KRAS (ratio of KD value for NRAS to KD value for KRAS) ([3]; SPR, KD ratio class) | further results
0.09 |  |  | CCCO[C@@H]1C[C@H]2C(=O)NC3(CC(C)(C)C3)C(=O)N(C)[C@@H](C3CCCC3)C(=O)N(C)[C@H](C(=O)N(C)C)CC(=O)N(C)[C@H]3CCCCc4ccc(cc4)C[C@@H](C(=O)N(C)CC(=O)N[C@@H](CCc4ccc(Cl)c(Cl)c4)C(=O)N2C1)N1CC/C=C\C[C@@H](C1=O)N(C)C(=O)CN(C)C(=O)[C@H]([C@@H](C)CC)NC3=O [PP3092] | A (a compound having 10 or more and less than 20 is denoted as A) | A (a compound having 10 or more and less than 20 is denoted as A) |  |  | IC50 ([1]; read-out: NCI-H441 cell proliferation inhibitory activity, 50% proliferation inhibitory concentration (IC50 value), NCI-H441, four days, CellTiter-Glo): 7.4 nM; ratio of the KD value with respect to GDP-bound HRAS wild-type protein to the KD value with respect to KRAS ([2]; SPR, KD(HRAS)/KD(KRAS)): A (a compound having 10 or more and less than 20 is denoted as A); ratio of the KD value with respect to GDP-bound NRAS wild-type protein to the KD value with respect to KRAS ([3]; SPR, KD(NRAS)/KD(KRAS)): A (a compound having 10 or more and less than 20 is denoted as A)
 | 1050 |  | CCC[C@H]1C(=O)N[C@@H](CC(C)C)C(=O)N2C[C@@H](OC)C[C@H]2C(=O)N(C)[C@H]2C/C=C\CCN(C2=O)[C@@H](Cc2ccc(C)cc2)C(=O)N(C)CC(=O)N[C@@H](CCc2ccc(C(F)(F)F)c(OC)c2)C(=O)N2C[C@H](OCC)C[C@H]2C(=O)NC2(CCC2)C(=O)N(C)[C@@H](C2CCCC2)C(=O)N(C)[C@H](C(=O)N(C)C)CC(=O)N1C [PP2548] |  |  |  |  | HRAS/KRAS (ratio of KD value with respect to GDP-bound HRAS wild-type protein to KD value with respect to KRAS) ([2]; SPR KD ratio HRAS/KRAS, class symbols): B (a compound having 3 or more and less than 10 is denoted as B); NRAS/KRAS (ratio of KD value with respect to GDP-bound NRAS wild-type protein to KD value with respect to KRAS) ([3]; SPR KD ratio NRAS/KRAS, class symbols): A (a compound having 10 or more and less than 20 is denoted as A); Kd ([4]; SPR Single Cycle Kinetics, 1:1 binding model): 7.8 nM

The remaining lines, values behind:

SMILES | Kd ([4]; SPR, Single Cycle Kinetics) [nM] | IC50 [1] [nM] | Kd [4, 5] [nM] | HRAS/KRAS (ratio of KD value for HRAS to KD value for KRAS) ([2]; SPR) | NRAS/KRAS (ratio of KD value for NRAS to KD value for KRAS) ([3]; SPR) | HRAS/KRAS (ratio of KD value for HRAS to KD value for KRAS) ([2]; SPR, KD ratio class) | NRAS/KRAS (ratio of KD value for NRAS to KD value for KRAS) ([3]; SPR, KD ratio class) | further results
CCO[C@@H]1C[C@H]2C(=O)NC3(CCC3)C(=O)N(C)[C@@H](C3CCCC3)C(=O)N(C)[C@H](C(=O)N(C)C)CC(=O)N(C)[C@@H](CC3CCCC3)C(=O)N[C@@H]([C@@H](C)CC)C(=O)N(C)CC(=O)N(C)[C@H]3C/C=C\CCN(C3=O)[C@@H](Cc3ccc(F)cc3)C(=O)N(C)CC(=O)N[C@@H](CCc3ccc4sccc4c3)C(=O)N2C1 [PP1390] |  | 305 | 1.1 |  |  | A (a compound having 10 or more and less than 20 is denoted as A) | A (a compound having 10 or more and less than 20 is denoted as A) | 
CC[C@H](C)[C@@H]1NC(=O)[C@H](CC2CC2)N(C)C(=O)C[C@@H](C(=O)N2CCOCC2)N(C)C(=O)[C@H](C2CCCC2)N(C)C(=O)C2(CCCC2)NC(=O)[C@@H]2CCCN2C(=O)[C@H](CCc2ccc(C(F)(F)F)c(Cl)c2)NC(=O)CN(C)C(=O)[C@H](Cc2ccc(C(F)(F)F)cc2)N2C[C@H](C)CC[C@@H](C2=O)N(C)C(=O)CN(C)C1=O [PP1343] |  | 19.3 | 0.27 |  |  | B (a compound having 3 or more and less than 10 is denoted as B) | A (a compound having 10 or more and less than 20 is denoted as A) | 
CCOC[C@H]1C(=O)N[C@@H]([C@@H](C)CC)C(=O)N(C)CC(=O)N(C)[C@H]2C/C=C\CCN(C2=O)[C@@H](CC2CCC(F)(F)CC2)C(=O)N(C)CC(=O)N[C@@H](CCc2ccc(C(F)(F)F)c(Cl)c2)C(=O)N2C[C@H](OCC)C[C@H]2C(=O)NC2(CC(C)(C)C2)C(=O)N(C)[C@@H](C(CC)CC)C(=O)N(C)[C@H](C(=O)N(C)C)CC(=O)N1C [PP2460] | 0.71 | 18.7 |  | A (a compound having 10 or more and less than 20 is denoted as A) | A (a compound having 10 or more and less than 20 is denoted as A) |  |  | 
CCCOC[C@H]1C(=O)N[C@@H]([C@@H](C)CC)C(=O)N2CCC[C@H]2C(=O)N(C)[C@H]2C/C=C\CCN(C2=O)[C@@H](Cc2ccc(C)cc2)C(=O)N(C)CC(=O)N[C@@H](CCc2ccc(C(F)(F)F)c(OC)c2)C(=O)N2C[C@@H](C)C[C@H]2C(=O)NC2(CC(C)(C)C2)C(=O)N(C)[C@@H](C2CCCC2)C(=O)N(C)[C@H](C(=O)N(C)CC)CC(=O)N1C [PP2429] | 4.5 | 8.3 |  | B (a compound having 3 or more and less than 10 is denoted as B) | A (a compound having 10 or more and less than 20 is denoted as A) |  |  | 
